In general, IC50 refers to the midpoint of a concentration-inhibition curve. Broadly, the Kd is a measure of binding affinity in units of concentration.

We go through three molecules from ChEMBL document CHEMBL5247656, “Discovery of a Potent, Cooperative, and Selective SOS1 PROTAC ZZ151 with In Vivo Antitumor Efficacy in KRAS-Mutant Cancers” (J Med Chem, 2023).

Calls of active or inactive are those of the source. The rule behind the calls is not given here.

Series [1] relates to SW-620. In words: Antiproliferative activity against human SW620 cells harboring KRAS G12V mutant assessed as inhibition of cell proliferation incubated for 7 days by CellTiterGlo-3D proliferation assay. The conditions noted are these: SW-620, 168 h. In kind it is functional, cell-based.
The target of series [2] is T1, Son of sevenless homolog 1 (Homo sapiens) (UniProt Q07889).
T1 sequence (whole entry): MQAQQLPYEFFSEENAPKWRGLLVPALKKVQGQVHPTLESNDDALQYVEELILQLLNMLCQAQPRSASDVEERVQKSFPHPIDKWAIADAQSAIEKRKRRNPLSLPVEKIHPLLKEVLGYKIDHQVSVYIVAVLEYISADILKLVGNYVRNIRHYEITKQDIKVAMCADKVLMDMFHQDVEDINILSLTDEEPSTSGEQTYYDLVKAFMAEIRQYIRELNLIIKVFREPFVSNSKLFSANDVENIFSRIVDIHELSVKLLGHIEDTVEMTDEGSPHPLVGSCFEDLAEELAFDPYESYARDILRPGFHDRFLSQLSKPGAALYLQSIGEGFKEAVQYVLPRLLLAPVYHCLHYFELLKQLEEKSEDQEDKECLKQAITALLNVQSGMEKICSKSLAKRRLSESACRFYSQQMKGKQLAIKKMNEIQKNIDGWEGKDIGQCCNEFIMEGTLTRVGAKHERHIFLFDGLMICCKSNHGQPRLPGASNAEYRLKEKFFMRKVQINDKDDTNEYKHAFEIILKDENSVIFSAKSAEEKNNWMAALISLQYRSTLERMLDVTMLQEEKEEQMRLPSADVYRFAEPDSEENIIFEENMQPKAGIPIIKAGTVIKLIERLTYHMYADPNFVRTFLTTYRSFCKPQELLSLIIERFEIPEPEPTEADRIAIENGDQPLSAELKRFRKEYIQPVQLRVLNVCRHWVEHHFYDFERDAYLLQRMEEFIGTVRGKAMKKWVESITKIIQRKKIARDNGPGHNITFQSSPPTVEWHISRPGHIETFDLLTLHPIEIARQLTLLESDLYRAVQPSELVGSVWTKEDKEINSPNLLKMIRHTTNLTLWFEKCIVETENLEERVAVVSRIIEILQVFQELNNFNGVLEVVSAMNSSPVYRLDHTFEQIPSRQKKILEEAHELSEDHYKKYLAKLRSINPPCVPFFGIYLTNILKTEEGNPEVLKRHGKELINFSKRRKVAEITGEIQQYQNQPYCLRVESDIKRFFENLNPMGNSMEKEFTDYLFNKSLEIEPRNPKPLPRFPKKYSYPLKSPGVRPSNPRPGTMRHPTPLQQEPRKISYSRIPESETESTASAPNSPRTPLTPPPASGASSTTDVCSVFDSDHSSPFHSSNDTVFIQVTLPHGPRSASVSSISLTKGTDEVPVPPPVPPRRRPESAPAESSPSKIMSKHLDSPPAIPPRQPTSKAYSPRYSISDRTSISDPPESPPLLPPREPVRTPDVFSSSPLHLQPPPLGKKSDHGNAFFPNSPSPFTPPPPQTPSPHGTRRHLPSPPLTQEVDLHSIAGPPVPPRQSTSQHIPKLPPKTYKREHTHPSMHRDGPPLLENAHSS
In words: Induction of SOS1 degradation in human NCI-H358 cells at 0.1 to 1 uM incubated for 24 hrs by immunoblot analysis. To be noted: dose 0.1-1 µM. In kind it is cell-based.

Series [3] deals with A549. The experiment in a line: Antiproliferative activity against human A549 cells harboring KRAS G12S mutant assessed as inhibition of cell proliferation incubated for 7 days by CellTiterGlo-3D proliferation assay. In kind it is functional, cell-based. To be noted: A549, 168 h.
Series [4] concerns the target T2, Son of sevenless homolog 1 (Homo sapiens, UniProt Q07889).
T2 sequence (Q07889 whole entry): T1 sequence (whole entry)
The experiment in a line: Binding affinity to GST-tagged human SOS1 (564 to 1049 residues) expressed in Escherichia coli BL21 (DE3) cells assessed as ternary complex formation by measuring dissociation constant incubated for 15 mins in the presence of 6His tagged human VCB by fluorescence polarization-based displacement assay. Background: In fluorescence polarisation assays a small probe gives low polarisation when free and higher when bound to something large.

Series [5] addresses T2, Son of sevenless homolog 1. In words: Binding affinity to GST-tagged human SOS1 (564 to 1049 residues) expressed in Escherichia coli BL21 (DE3) cells assessed as binary complex formation by measuring dissociation constant incubated for 15 mins by fluorescence polarization-based displacement assay.
Series [6] deals with ASPC1. In words: Antiproliferative activity against human ASPC1 cells harboring KRAS G12D mutant assessed as inhibition of cell proliferation incubated for 7 days by CellTiterGlo-3D proliferation assay. In kind it is functional, cell-based. To be noted: ASPC1, 168 h. (In general: Cellular ATP, detected with luciferase, serves as a proxy for viable cell number.)
Series [7] concerns MIA PaCa-2. In words: Antiproliferative activity against human MIA PaCa-2 cells harboring KRAS G12C mutant assessed as inhibition of cell proliferation incubated for 7 days by CellTiterGlo-3D proliferation assay. In kind it is functional, cell-based. The conditions noted are these: MIA PaCa-2, 168 h.
Series [8] concerns the target von Hippel-Lindau disease tumor suppressor/Son of sevenless homolog 1/Elongin-B/Elongin-C (Homo sapiens) (UniProt Q07889+P40337+Q15370+Q15369). The experiment in a line: Binding affinity to GST tagged human SOS1(564 to 1049 residues)-6his tagged human VHL (54 to 213 residues)-human ElonginC (17 to 112 residues)-human ElonginB (1 to 104 residues) expressed in Escherichia coli BL21 (DE3) cells assessed as ternary complex formation by measuring maximal HTRF signals incubated for 15 mins by HTRF analysis. On the technique in general: TR-FRET usually uses a lanthanide donor and a delayed reading to cut background.

The test system of series [9] is NCI-H358. The experiment in a line: Antiproliferative activity against human NCI-H358 cells harboring KRAS G12C mutant assessed as inhibition of cell proliferation incubated for 7 days by CellTiterGlo-3D proliferation assay. In kind it is functional, cell-based. To be noted: NCI-H358, 168 h.
The subject of series [10] is PANC-1. The experiment in a line: Antiproliferative activity against human PANC-1 cells harboring KRAS G12D mutant assessed as inhibition of cell proliferation incubated for 7 days by CellTiterGlo-3D proliferation assay. To be noted: PANC-1, 168 h. In kind it is functional, cell-based.
Series [11] concerns LoVo. The experiment in a line: Antiproliferative activity against human LoVo cells harboring KRAS G13D mutant assessed as inhibition of cell proliferation incubated for 7 days by CellTiterGlo-3D proliferation assay. In kind it is functional, cell-based. The conditions noted are these: 168 h.
The target of series [12] is T3, von Hippel-Lindau disease tumor suppressor/Son of sevenless homolog 1 (Homo sapiens) (UniProt Q07889+P40337). The experiment in a line: PROTAC activity at VHL/SOS1 in human ASPC1 cells harboring KRAS G12D mutant assessed as induction of SOS1 degradation upto 10 uM incubated for 24 hrs by immunoblotting analysis. In kind it is cell-based.
For series [13], the target named is T3, von Hippel-Lindau disease tumor suppressor/Son of sevenless homolog 1 (Homo sapiens). The experiment in a line: PROTAC activity at VHL/SOS1 in human NCI-H358 cells harboring KRAS G12C mutant assessed as induction of SOS1 degradation upto 10 uM incubated for 24 hrs by immunoblotting analysis. In kind it is cell-based.
A short description of series [14]: Toxicity in BALB/c nude mouse xenografted with human SW620 cells harboring KRAS G12V mutant assessed as body weight loss at 50 mg/kg, ip administered twice daily for 2 weeks. In kind it is organism-based, SW-620. To be noted: in vivo, 336 h.
Series [15] is described as follows: Toxicity in BALB/c nude mouse xenografted with human ASPC1 cells harboring KRAS G12D mutant assessed as body weight loss at 50 mg/kg, ip administered twice daily for 3 weeks. In kind it is organism-based. To be noted: in vivo, 504 h.
Series [16] relates to ASPC1. The experiment in a line: In vivo Inhibition of ERK in human ASPC1 cells harboring KRAS G12D mutant xenografted BALB/c nude mouse assessed as inhibition of ERK phosphorylation at 50 mg/kg, ip administered twice daily for 3 weeks by Immunoblot analysis. In kind it is functional, organism-based.
Series [17] relates to ASPC1. In words: Antitumor activity against human ASPC1 cells harboring KRAS G12D mutant xenografted in BALB/c nude mouse assessed as tumor growth inhibition at 50 mg/kg, ip administered twice daily for 3 weeks relative to control. In kind it is functional. The conditions noted are these: ASPC1, 504 h, read-out: TGI.
Series [18] relates to ASPC1. The experiment in a line: In vivo Inhibition of ERK in human ASPC1 cells harboring KRAS G12D mutant xenografted BALB/c nude mouse assessed as inhibition of ERK phosphorylation in tumor at 50 mg/kg, ip administered twice daily for 3 weeks by immunohistochemical analysis. In kind it is functional, organism-based.
Series [19] deals with SW-620. The experiment in a line: Antitumor activity against human SW620 cells harboring KRAS G12V mutant xenografted in BALB/c nude mouse assessed as tumor growth inhibition at 50 mg/kg, ip administered twice daily for 2 weeks relative to control. To be noted: SW-620, 336 h, read-out: TGI. In kind it is functional.
Series [20] deals with SW-620. The experiment in a line: In vivo Inhibition of ERK in human SW620 cells harboring KRAS G12V mutant xenografted BALB/c nude mouse assessed as inhibition of ERK phosphorylation in tumor at 50 mg/kg, ip administered twice daily for 2 weeks by immunohistochemistry analysis. In kind it is functional, organism-based.
Series [21] relates to SW-620. The experiment in a line: In vivo Inhibition of ERK in human SW620 cells harboring KRAS G12V mutant xenografted BALB/c nude mouse assessed as inhibition of ERK phosphorylation at 50 mg/kg, ip administered twice daily for 2 weeks by Immunoblot analysis. In kind it is functional, organism-based.

As to `COc1cc2nc(C)nc(NC(C)c3cc(N)cc(C(F)(F)F)c3)c2cc1C1CCN(C(C)=O)CC1` (stereo not given), the IC50 came to 36.3 nM in [1]; 134 nM in series [3]; 36.7 nM in series [6]; 48.5 nM in [7]; 74.6 nM in series [9]; 23.1 nM in series [10]. Further, the IC50 in series [11] is 79.8 nM. Also, the outcome in series [2] and in [8] was inactive. Besides, the Kd worked out at 26.5 nM in [4] and 26.9 nM in [5].
On to `COc1cc2nc(C)nc(N[C@H](C)c3cc(N)cc(C(F)(F)F)c3)c2cc1C1CCN(C(=O)CCCCCC(=O)N[C@H](C(=O)N2C[C@@H](O)C[C@H]2C(=O)N[C@@H](C)c2ccc(-c3scnc3C)cc2)C(C)(C)C)CC1`, for which the IC50 came out at 303 nM in [1]; 731 nM in series [3]; 302 nM in series [6]; 957 nM in [7]; 457 nM in [9]; 188 nM in [10]. Moreover, the IC50 in series [11] is over 1000 nM. The outcome in series [12] and in series [13] was inactive.
Consider `COc1cc2nc(C)nc(N[C@H](C)c3cc(N)cc(C(F)(F)F)c3)c2cc1O[C@H]1CCOC1`, for which the IC50 was found to be 30.1 nM in [1]; 263 nM in [3]; 64.4 nM in series [6]; 24.8 nM in series [7]; 16.5 nM in series [9]; 17.8 nM in series [10]. The IC50 in series [11] was found to be 142 nM. Moreover, the Activity entry in [14] and in series [15] was “Non-Toxic” in each case. The inhibition entry in series [16], in series [18], in series [20] and in series [21] was “Active” in each case. Besides, the inhibition in vivo at 50 mg/kg came out at 43.6% in [17] and 61.4% in series [19].
